pIC50: −log10 of the molar value.
Experiments:
[1] = target: human recombinant PDE5 (Homo sapiens, UniProt O76074); test: Inhibitory effect on cGMP-PDE (one-step assay, 8-[H3]-cGMP)
[2] = target: T1, PDE5 (bovine aorta) (Bos taurus, UniProt Q28156); test: Inhibitory effect on cGMP-PDE, enzyme from bovine aorta; format: biochemical; settings: vs. bovine aorta
T1 construct: from tissue; host or cells: bovine aorta
Source text: Biophys. Acta, 384, 430 (1975).

Structure (SMILES) | melting point | pIC50 [1] | also measured
CN1CC(=S)N2[C@H](c3ccc4c(c3)OCO4)c3[nH]c4ccccc4c3C[C@@H]2C1=S | 158 to 162 °C |  | 
CN1CCN2[C@H](c3ccc4c(c3)OCO4)c3[nH]c4ccccc4c3C[C@@H]2C1=O [Example 1, (6R,12aR)-6-Benzo[1,3]dioxol-5-yl-2-methyl-3,4,6,7,12,12a-hexahydro-2H-pyrazino[1′,2′:1,6]pyrido[3,4-b]indole-1-one] |  | 7.27 | 
CN1CCN2[C@@H](c3ccc4c(c3)OCO4)c3[nH]c4ccccc4c3C[C@@H]2C1=O [Example 2, (6S,12aR)-6-Benzo[1,3]dioxol-5-yl-2-methyl-3,4,6,7,12,12a-hexahydro-2H-pyrazino-[1′2′:1,6]pyrido[3,4-b]indol-1-one] |  | 6.24 | 
CN1CCN2[C@@H](c3ccc4c(c3)OCO4)c3[nH]c4ccccc4c3C[C@H]2C1=O [Example 3] |  |  | pIC50 [2]: 7.00
O=C1CNC[C@H]2Cc3c([nH]c4ccccc34)[C@@H](c3ccc4c(c3)OCO4)N12 [Example 4] |  | 8.64 | 
CN1CC(=S)N2[C@H](c3ccc4c(c3)OCO4)c3[nH]c4ccccc4c3C[C@H]2C1=S [Example 6, (6R,12aS)-6-Benzo[1,3]dioxol-5-yl-2-methyl 2,3,6,7,12,12a-hexahydropyrazino[1′,2′:1,6]pyrido[3,4-b]indole-1,4-dithione] | 177 to 182 °C |  | 
